Experimental data from ChEMBL document CHEMBL4145540 (Eur J Med Chem, 2018).
Active and inactive are the calls of the source. No cut-off for these calls is given here.

Experiments:
MDA-MB-231 [1] = test: Antiproliferative activity against human MDA-MB-231 cells after 3 days by coulter counting method; type: functional, cell-based; settings: MDA-MB-231, 72 h
A549 [2] = test: Antiproliferative activity against human A549 cells after 2 days by MTT assay; type: functional, cell-based; settings: A549, 48 h
MCF7 = test: Antiproliferative activity against human MCF7 cells after 2 days by MTT assay; type: functional, cell-based; settings: MCF7, 48 h
A549 [3] = test: Cell cycle arrest in human A549 cells assessed as accumulation at S phase at 160 nM after 20 hrs by propidium iodide staining based flow cytometry (reference value: 16 +/- 1%); type: functional
HeLa = test: Antiproliferative activity against human HeLa cells after 2 days by MTT assay; type: functional, cell-based; settings: 48 h
A549 [4] = test: Cell cycle arrest in human A549 cells assessed as accumulation at sub-G0 phase at 160 nM after 20 hrs by propidium iodide staining based flow cytometry (reference value: 6.6 +/- 0.1%); type: functional
HEK293 = test: Antiproliferative activity against HEK293 cells after 2 days by MTT assay; type: cell-based; settings: Homo sapiens, HEK293, 48 h
HMEC-1 [5] = test: Antiproliferative activity against HMEC1 cells after 2 days by MTT assay; type: functional, cell-based; settings: Homo sapiens, HMEC-1, 48 h
A549 [6] = test: Cell cycle arrest in human A549 cells assessed as accumulation at G0/G1 phase at 160 nM after 20 hrs by propidium iodide staining based flow cytometry (reference value: 66 +/- 1%); type: functional
HL-60 = test: Antiproliferative activity against human HL60 cells after 2 days by MTT assay; type: functional, cell-based; settings: HL-60, 48 h
HT-29 = test: Antiproliferative activity against human HT-29 cells after 2 days by MTT assay; type: functional, cell-based; settings: HT-29, 48 h
A549 [7] = test: Cell cycle arrest in human A549 cells assessed as accumulation at G2/M phase at 160 nM after 20 hrs by propidium iodide staining based flow cytometry (reference value: 11 +/- 1%); type: functional
A549 [8] = test: Cell cycle arrest in human A549 cells assessed as accumulation at G0/G1 phase at 750 nM after 20 hrs by propidium iodide staining based flow cytometry (reference value: 66 +/- 1%); type: functional
A549 [9] = test: Cell cycle arrest in human A549 cells assessed as accumulation at sub-G0 phase at 750 nM after 20 hrs by propidium iodide staining based flow cytometry (reference value: 6.6 +/- 0.1%); type: functional
A549 [10] = test: Cell cycle arrest in human A549 cells assessed as accumulation at S phase at 750 nM after 20 hrs by propidium iodide staining based flow cytometry (reference value: 16 +/- 1%); type: functional
A549 [11] = test: Cell cycle arrest in human A549 cells assessed as accumulation at G2/M phase at 750 nM after 20 hrs by propidium iodide staining based flow cytometry (reference value: 11 +/- 1%); type: functional
A549 [12] = test: Cell cycle arrest in human A549 cells assessed as accumulation at sub-G0 phase at 230 nM after 20 hrs by propidium iodide staining based flow cytometry (reference value: 6.6 +/- 0.1%); type: functional
A549 [13] = test: Cell cycle arrest in human A549 cells assessed as accumulation at G0/G1 phase at 230 nM after 20 hrs by propidium iodide staining based flow cytometry (reference value: 66 +/- 1%); type: functional
A549 [14] = test: Cell cycle arrest in human A549 cells assessed as accumulation at S phase at 230 nM after 20 hrs by propidium iodide staining based flow cytometry (reference value: 16 +/- 1%); type: functional
A549 [15] = test: Cell cycle arrest in human A549 cells assessed as accumulation at G2/M phase at 230 nM after 20 hrs by propidium iodide staining based flow cytometry (reference value: 11 +/- 1%); type: functional
A549 [16] = test: Cell cycle arrest in human A549 cells assessed as accumulation at G0/G1 phase at 55 nM after 20 hrs by propidium iodide staining based flow cytometry (reference value: 66 +/- 1%); type: functional
A549 [17] = test: Cell cycle arrest in human A549 cells assessed as accumulation at sub-G0 phase at 55 nM after 20 hrs by propidium iodide staining based flow cytometry (reference value: 6.6 +/- 0.1%); type: functional
A549 [18] = test: Disruption of microtubule network in human A549 cells assessed as appearance of tubulin aggregates at 220 nM after 16 hrs by Hoechst staining based immunofluorescence assay; type: cell-based
A549 [19] = test: Cell cycle arrest in human A549 cells assessed as accumulation at S phase at 55 nM after 20 hrs by propidium iodide staining based flow cytometry (reference value: 16 +/- 1%); type: functional
A549 [20] = test: Cell cycle arrest in human A549 cells assessed as accumulation at G2/M phase at 55 nM after 20 hrs by propidium iodide staining based flow cytometry (reference value: 11 +/- 1%); type: functional
A549 [21] = test: Disruption of microtubule network in human A549 cells assessed as appearance of compressed and fragmented nuclei at 220 nM after 16 hrs by Hoechst staining based immunofluorescence assay; type: cell-based
A549 [22] = test: Cell cycle arrest in human A549 cells assessed as accumulation at G0/G1 phase at 275 nM after 20 hrs by propidium iodide staining based flow cytometry (reference value: 66 +/- 1%); type: functional
A549 [23] = test: Cell cycle arrest in human A549 cells assessed as accumulation at G2/M phase at 275 nM after 20 hrs by propidium iodide staining based flow cytometry (reference value: 11 +/- 1%); type: functional
HMEC-1 [24] = test: Vascular disruptive activity in HMEC1 cells assessed as disruption of preformed tubular networks after 4 hrs by matrigel based assay; type: functional, cell-based; settings: Homo sapiens
A549 [25] = test: Cell cycle arrest in human A549 cells assessed as accumulation at S phase at 275 nM after 20 hrs by propidium iodide staining based flow cytometry (reference value: 16 +/- 1%); type: functional
A549 [26] = test: Cell cycle arrest in human A549 cells assessed as accumulation at sub-G0 phase at 275 nM after 20 hrs by propidium iodide staining based flow cytometry (reference value: 6.6 +/- 0.1%); type: functional
MDA-MB-231 [27] = test: Inhibition of EBI binding to beta-tubulin colchicine binding site in human MDA-MB-231 cells at 10 uM preincubated for 16 hrs followed by EBI addition and measured after 1.5 hrs by Western blot analysis; type: cell-based
A549 [28] = test: Cell cycle arrest in human A549 cells assessed as accumulation at G0/G1 phase at 400 nM after 20 hrs by propidium iodide staining based flow cytometry (reference value: 66 +/- 1%); type: functional
A549 [29] = test: Cell cycle arrest in human A549 cells assessed as accumulation at sub-G0 phase at 400 nM after 20 hrs by propidium iodide staining based flow cytometry (reference value: 6.6 +/- 0.1%); type: functional
A549 [30] = test: Cell cycle arrest in human A549 cells assessed as accumulation at S phase at 400 nM after 20 hrs by propidium iodide staining based flow cytometry (reference value: 16 +/- 1%); type: functional
A549 [31] = test: Cell cycle arrest in human A549 cells assessed as accumulation at G2/M phase at 400 nM after 20 hrs by propidium iodide staining based flow cytometry (reference value: 11 +/- 1%); type: functional
A549 [32] = test: Cell cycle arrest in human A549 cells assessed as accumulation at S phase at 1500 nM after 20 hrs by propidium iodide staining based flow cytometry (reference value: 16 +/- 1%); type: functional
A549 [33] = test: Cell cycle arrest in human A549 cells assessed as accumulation at G2/M phase at 1500 nM after 20 hrs by propidium iodide staining based flow cytometry (reference value: 11 +/- 1%); type: functional
A549 [34] = test: Cell cycle arrest in human A549 cells assessed as accumulation at G0/G1 phase at 1500 nM after 20 hrs by propidium iodide staining based flow cytometry (reference value: 66 +/- 1%); type: functional
A549 [35] = test: Cell cycle arrest in human A549 cells assessed as accumulation at sub-G0 phase at 1500 nM after 20 hrs by propidium iodide staining based flow cytometry (reference value: 6.6 +/- 0.1%); type: functional
MDA-MB-231 [36] = test: Inhibition of EBI binding to beta-tubulin colchicine binding site in human MDA-MB-231 cells at 100 uM preincubated for 16 hrs followed by EBI addition and measured after 1.5 hrs by Western blot analysis; type: cell-based
A549 [37] = test: Cell cycle arrest in human A549 cells assessed as accumulation at sub-G0 phase at 90 nM after 20 hrs by propidium iodide staining based flow cytometry (reference value: 6.6 +/- 0.1%); type: functional
A549 [38] = test: Cell cycle arrest in human A549 cells assessed as accumulation at S phase at 90 nM after 20 hrs by propidium iodide staining based flow cytometry (reference value: 16 +/- 1%); type: functional
A549 [39] = test: Cell cycle arrest in human A549 cells assessed as accumulation at G0/G1 phase at 90 nM after 20 hrs by propidium iodide staining based flow cytometry (reference value: 66 +/- 1%); type: functional
A549 [40] = test: Cell cycle arrest in human A549 cells assessed as accumulation at G2/M phase at 90 nM after 20 hrs by propidium iodide staining based flow cytometry (reference value: 11 +/- 1%); type: functional

## COc1ccc(/C=C\c2cc(OC)c(OC)c(OC)c2)cc1NC(=O)Oc1ccccc1F
MDA-MB-231 [1]
  IC50: 71 nM
A549 [2]
  IC50: 320 nM
MCF7
  IC50: 62 nM
A549 [3]
  Activity: 13%
HeLa
  IC50: 17 nM
A549 [4]
  Activity: 17%
HEK293
  IC50: 65 nM
HMEC-1 [5]
  IC50: 180 nM
A549 [6]
  Activity: 31%
HL-60
  IC50: 4 nM
HT-29
  IC50: 110 nM
A549 [7]
  Activity: 39%

## COc1ccc(/C=C\c2cc(OC)c(OC)c(OC)c2)cc1NC(=O)Oc1ccc(C)cc1
MDA-MB-231 [1]
  IC50: 14 nM
A549 [2]
  IC50: 1500 nM
MCF7
  IC50: 200 nM
A549 [8]
  Activity: 24%
A549 [9]
  Activity: 27%
HeLa
  IC50: 370 nM
HEK293
  IC50: 144 nM
HMEC-1 [5]
  IC50: 160 nM
HL-60
  IC50: 52 nM
A549 [10]
  Activity: 16%
HT-29
  IC50: 270 nM
A549 [11]
  Activity: 32%

## COc1ccc(/C=C\c2cc(OC)c(OC)c(OC)c2)cc1NC(=O)Oc1ccccc1C
MDA-MB-231 [1]
  IC50: 21 nM
A549 [2]
  IC50: 460 nM
A549 [12]
  Activity: 16%
A549 [13]
  Activity: 31%
MCF7
  IC50: 380 nM
HeLa
  IC50: 50 nM
HEK293
  IC50: 60 nM
HMEC-1 [5]
  IC50: 55 nM
A549 [14]
  Activity: 13%
HL-60
  IC50: 222 nM
A549 [15]
  Activity: 40%
HT-29
  IC50: 160 nM

## COc1ccc(/C=C\c2cc(OC)c(OC)c(OC)c2)cc1NC(=O)Oc1ccccc1C(F)(F)F
A549 [16]
  Activity: 21%
MDA-MB-231 [1]
  IC50: 13.7 nM
A549 [2]
  IC50: 110 nM
A549 [17]
  Activity: 20%
MCF7
  IC50: 44 nM
A549 [18]
  Activity: Active
HeLa
  IC50: 15 nM
HEK293
  IC50: 4.1 nM
A549 [19]
  Activity: 15%
HMEC-1 [5]
  IC50: 19 nM
HL-60
  IC50: 6.7 nM
A549 [20]
  Activity: 44%
A549 [21]
  Activity: Active
HT-29
  IC50: 16 nM

## COc1ccc(OC(=O)Nc2cc(/C=C\c3cc(OC)c(OC)c(OC)c3)ccc2OC)cc1
MDA-MB-231 [1]
  IC50: 69 nM
A549 [22]
  Activity: 25%
A549 [2]
  IC50: 550 nM
MCF7
  IC50: 230 nM
HeLa
  IC50: 200 nM
HEK293
  IC50: 130 nM
A549 [23]
  Activity: 46%
HMEC-1 [5]
  IC50: 120 nM
HL-60
  IC50: 50 nM
HMEC-1 [24]
  Activity: Dose-dependent effect
A549 [25]
  Activity: 14%
A549 [26]
  Activity: 14%
HT-29
  IC50: 350 nM
MDA-MB-231 [27]
  inhibition: Active

## COc1ccc(/C=C\c2cc(OC)c(OC)c(OC)c2)cc1NC(=O)Oc1ccc(Cl)cc1
MDA-MB-231 [1]
  IC50: 9.39 nM
A549 [28]
  Activity: 21%
A549 [2]
  IC50: 800 nM
A549 [29]
  Activity: 20%
MCF7
  IC50: 82 nM
HeLa
  IC50: 24 nM
HEK293
  IC50: 142 nM
HMEC-1 [5]
  IC50: 76 nM
A549 [30]
  Activity: 18%
HL-60
  IC50: 770 nM
A549 [31]
  Activity: 41%
HT-29
  IC50: 31 nM

## COc1ccc(/C=C\c2cc(OC)c(OC)c(OC)c2)cc1NC(=O)Oc1ccccc1OC
MDA-MB-231 [1]
  IC50: > 100 nM
A549 [2]
  IC50: 3000 nM
MCF7
  IC50: 230 nM
A549 [32]
  Activity: 12%
A549 [33]
  Activity: 43%
HeLa
  IC50: 348 nM
HEK293
  IC50: 160 nM
HMEC-1 [5]
  IC50: 400 nM
HL-60
  IC50: 350 nM
HMEC-1 [24]
  Activity: Dose-dependent effect
A549 [34]
  Activity: 29%
A549 [35]
  Activity: 17%
MDA-MB-231 [36]
  inhibition: Active
HT-29
  IC50: 290 nM

## COc1ccc(/C=C\c2cc(OC)c(OC)c(OC)c2)cc1NC(=O)Oc1ccccc1Br
MDA-MB-231 [1]
  IC50: 13.4 nM
A549 [2]
  IC50: 180 nM
MCF7
  IC50: 18.9 nM
HeLa
  IC50: 2.6 nM
HEK293
  IC50: 8 nM
A549 [37]
  Activity: 17%
HMEC-1 [5]
  IC50: 22 nM
HL-60
  IC50: 3 nM
A549 [38]
  Activity: 10%
A549 [39]
  Activity: 29%
HT-29
  IC50: 7.5 nM
A549 [40]
  Activity: 44%
